According to PubChem BioAssay (NCI):
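1) Cells in 96-well plates. 2) Compound, 48 h, 5 concentrations. 3) Linear interpolation between surrounding doses. 4) Unreached endpoint = highest concentration. TGI denotes the concentration required for complete inhibition of growth.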

Experiments:
Test in all cases: DTP human tumour cell line panel, 48 h
MOLT-4 leukemia = system: MOLT-4 leukemia
786-0 renal = system: 786-0 renal
SR leukemia = system: SR leukemia
K-562 leukemia = system: K-562 leukemia
SK-MEL-2 melanoma = system: SK-MEL-2 melanoma
OVCAR-8 ovarian = system: OVCAR-8 ovarian
MALME-3M melanoma = system: MALME-3M melanoma
UO-31 renal = system: UO-31 renal
HCT-15 colon = system: HCT-15 colon
LOX IMVI melanoma = system: LOX IMVI melanoma
HL-60(TB) leukemia = system: HL-60(TB) leukemia
OVCAR-4 ovarian = system: OVCAR-4 ovarian
A498 renal = system: A498 renal

Row | SMILES | TGI (MOLT-4 leukemia) [µM] | TGI (786-0 renal) [µM] | TGI (SR leukemia) [µM] | TGI (K-562 leukemia) [µM] | TGI (SK-MEL-2 melanoma) [µM] | TGI (OVCAR-8 ovarian) [µM] | TGI (MALME-3M melanoma) [µM] | TGI (UO-31 renal) [µM] | TGI (HCT-15 colon) [µM] | TGI (LOX IMVI melanoma) [µM] | TGI (HL-60(TB) leukemia) [µM] | TGI (OVCAR-4 ovarian) [µM] | TGI (A498 renal) [µM]
1 | O=Cc1cc(C(=O)OCc2ccccc2)n(S(=O)(=O)c2ccccc2)c1 | > 100 | > 100 | > 100 | > 100 | 39.6 | > 100 | > 100 | 44.1 | 50.7 | 62.5 | 63 | > 100 | 
2 | CCOP(=O)(OCC)C(NC(=O)C(C(F)(F)F)C(F)(F)F)c1ccccc1 (configuration not stated) | > 100 | > 100 | > 100 | > 100 | > 100 | > 100 | > 100 | > 100 | > 100 | > 100 | 67.9 | > 100 | 
3 | CC(=O)O[C@H]1C(=O)[C@@]2(C)[C@H]([C@H](OC(=O)c3ccccc3)[C@]3(O)C[C@H](OC(=O)[C@H](O)[C@@H](NC(=O)c4ccco4)c4ccccc4)C(C)=C1C3(C)C)[C@]1(OC(C)=O)CO[C@@H]1C[C@@H]2O | > 12.5 | > 12.5 | > 12.5 | < 0.00125 |  | > 12.5 |  | > 12.5 | > 12.5 | > 12.5 | < 0.00125 | > 12.5 | > 12.5
4 | COc1ccc(OC)c2c1C=CC(Br)=CC2 | 0.478 | 0.544 | 0.488 | 0.419 | 0.247 | > 1 | 0.312 | > 1 | 0.485 | 0.302 |  | > 1 | > 1
5 | CN(C)N1C(=O)S/C(=C\c2ccc([N+](=O)[O-])cc2)C1=O | > 100 | > 100 | > 100 |  | > 100 | > 100 | > 100 |  | > 100 | > 100 | > 100 | > 100 | > 100
6 | CCC(C)[C@@H](Nc1c(O)c2c(c(O)c1Cl)C(=O)C=CC2=O)C(=O)OC (some centres not stated) | 5.94 | > 10 | 4.49 | > 10 | > 10 | > 10 | 5.14 |  | > 10 | > 10 | 5.93 | 8.12 | 
7 | COc1cccc(C2c3cc4c(cc3OC(NNS(=O)(=O)c3ccc(C)cc3)C2C)OCO4)c1OC (configuration not stated) | 9.02 | 68.3 | 3.29 | 6.79 | 7.18 | > 100 | 49.9 | 52.8 | 9.82 | 5.15 | 3.28 |  | 6.42
8 | C=CC1CN(C(=O)OCC)N(C(=O)OCC)C1CCc1ccccc1 (configuration not stated) | > 100 | > 100 | > 100 | > 100 | > 100 | > 100 | > 100 | > 100 | > 100 | > 100 | > 100 | > 100 | 
9 | CC(=O)c1ccc2c(c1)CC1(C2)Cc2cc3c(c(C(=O)O)c2C1)CCC3 (configuration not stated) | > 100 | > 100 | > 100 | > 100 |  | > 100 | > 100 | > 100 | > 100 | > 100 | > 100 | > 100 | > 100
10 | COc1ccc2c(c1)/C(=C\c1c(Cl)[nH]c3ccccc13)C(=O)N2 | 41 | 17 | 8.25 | 12.2 | 16.1 | 23.8 | 19.2 | 20.2 | 37.2 | 17.5 | 10.8 |  | 23.7
11 | COC(=O)CCNC(=O)OCc1ccccc1 | > 100 | > 100 | > 100 | > 100 | > 100 | > 100 | > 100 | > 100 | > 100 | > 100 | > 100 |  | > 100
12 | CCOC(=O)NC(Nc1ccc(F)cc1)(C(=O)OCC)C(F)(F)F (configuration not stated) | > 100 | > 100 | > 100 | > 100 |  | > 100 | > 100 | > 100 | > 100 | > 100 | > 100 | > 100 | > 100
13 | O=C1CC(CC(=O)c2ccc(Br)cc2)C(=O)/C1=C(/O)c1ccc(Br)cc1 (configuration not stated) | > 100 | > 100 | > 100 | > 100 | > 100 | > 100 | > 100 | > 100 | > 100 | > 100 | > 100 |  | > 100
14 | O=C1Nc2nccnc2C(=O)N2CCC[C@@H]12 | > 100 | > 100 | > 100 | > 100 | > 100 | > 100 | > 100 | > 100 | > 100 | > 100 | > 100 | > 100 | 
15 | COc1nc(N)c(NC(C)=O)c(=O)n1C | > 100 |  | > 100 | > 100 | > 100 | > 100 | > 100 | > 100 | > 100 | > 100 | > 100 | > 100 | > 100
16 | CN(C)c1c(C2OC(CO)C(O)C2O)c(=O)c1=O (configuration not stated) | > 100 | > 100 | > 100 | > 100 | > 100 | > 100 | > 100 | > 100 | > 100 | > 100 |  | > 100 | > 100
17 | Fc1ccc2c3c([nH]c2c1)CCN(Cc1ccccc1)C3 | 42.5 | 30 | 40.7 | 41 |  | 39.6 | 35 | 25.6 | 36.5 | 33.5 | 37.6 | 56.1 | 31.7
18 | CC1CCC2CC(=O)OC([C@@H]3C(=O)O[C@@H](C4=CCCC4)C4C(C)CCC43)C12 (some centres not stated) | > 100 | > 100 | > 100 | > 100 | > 100 | > 100 | > 100 | > 100 | > 100 | > 100 | 65.1 |  | 
